According to patent US11254680B2, “Cyclic iminopyrimidine derivatives as kinase inhibitors” (ABM Therapeutics Corporation, priority 2017, dated 2022):

Tests used:
A375 melanoma cells = assay: Antiproliferation assay in A375 cell line by CellTiter Glo; type: cell-based; settings: Homo sapiens, A-375, 72 hours or 144 hours
Method: In vitro anti-proliferation study of test compounds in A375 cell line by CellTiter Glo. The cells were routinely maintained as a monolayer culture in corresponding culture medium, at 37° C. with 5% CO2 in air.
Harvest the exponential growth cells by trypsin-EDTA digestion. Re-suspend the cell pellet in fresh culture medium, and adjust the concentration to needed (the cell density per well was listed in following form). The cell viability is over 98% by Trypan blue staining. Inoculate cells into 96 wells plates according to the plate map (90 μL/well). Incubate the plates at 37° C. and 5% CO2 overnight. The next day, prepare the 10×compound containing medium according to the plate map. Transfer 10 μL of 10×compound containing medium into each well of the assay plates (the final DMSO concentration is 0.5%). Gently mix the medium and incubate at 37° C. and 5% CO2 for another 72 hours or 144 hours.
Prepare the reagent according to the manufacture's instruction. Add 50 μL CellTiter-Glo Reagent in each well. Mix contents for 2 minutes on an orbital shaker to induce cell lysis. Allow the plate to incubate at room temperature for 10 minutes to stabilize luminescent signal. Transfer 100 μL of reaction contents of each well from the clear plates into white walled/white opaque 96-well plates. Record the luminescence on Envision.
Using the luminescence measurements [time zero (T0), control growth (C), and test growth in the presence of drug at the six concentration levels (Ti)], the percentage growth is calculated at each of the drug concentrations levels.
Percentage growth inhibition (GI) is calculated as: GI (%)═[(Ti-T0)/(C-T0)]×100 for concentrations for which Ti>=T0, and GI (%)═[(Ti-T0)/T0]×100 for concentrations for which Ti<T0. Data were analyzed using the XLFit (Excel) tool, fitting to a 4-parameter equation to generate concentration response curves. Concentration of compound that inhibits 50% of control cell growth (GI50) was back-interpolated when y=50% of net growth of DMSO treated control wells using nonlinear regression with the equation: f(x) 205 [fit=(A+((B−A)/(1+((C/x)^))))], where A is the minimum response (Ymin), B is the maximum response (Ymax), C is the inflection point of the curve (Re GI50) and D is the Hill coefficient. Growth inhibition of 50% (GI50) was calculated at the 50% Growth inhibition on the curve. Index values were the sum of Inhibition rate (IR) at each tested compound concentration.

P-glycoprotein (MDR1) = assay: MDCK-MDR1 Permeability Assay; type: in vitro ADME, canine; settings: dog; for efflux ratio at 120 min: MDCK-MDR1, Papp(B-A)/Papp(A-B); for Papp A→B at 120 min: MDCK-MDR1, apical to basolateral; for Papp A→B at 120 min / Papp B→A at 120 min: 1-30 μM; for Papp B→A at 120 min: MDCK-MDR1, basolateral to apical
Method: MDCK-MDR1 cells originate from transfection of Madin Darby canine kidney (MDCK) cells with the MDR1 gene, the gene encoding for the efflux protein, P-glycoprotein. This cell line is ideal for identifying substrates of P-gp, with or without an inhibitor. The cells are seeded on a Multiscreen™ plate to form a confluent monolayer over 4 days prior to the experiment. On day 4, the test compound (1-30 μM concentration) is added to the apical side of the membrane and the transport of the compound across the monolayer is monitored over a 120 minutes time period. To study drug efflux, it is also necessary to investigate transport of the compound from the basolateral compartment to the apical compartment and calculate an efflux ratio.
(§1) The permeability coefficient (Papp) is calculated from the following equation: Papp=[(dQ/dt)/C0×A] where dQ/dt is the rate of permeation of the drug across the cells, C0 is the donor compartment concentration at time zero and A is the area of the cell monolayer.
An efflux ratio is calculated from the mean apical to basolateral (A-B) Papp data and basolateral to apical (B-A) Papp data. Efflux Ratio=Papp(B−A)/Papp(A−B)

[1] = Caco-2 Permeability Assay; type: in vitro ADME; settings: human; for efflux ratio at 120 min: Caco-2; for Papp A→B at 120 min: Caco-2, apical to basolateral; for Papp A→B at 120 min / Papp B→A at 120 min: 1-30 μM; for Papp B→A at 120 min: Caco-2, basolateral to apical
Method: Caco-2 cells are widely used as an in vitro assay to measure the permeability of a drug compound. The Caco-2 cell line is derived from a human colorectal carcinoma, and when cultured, the cells spontaneously differentiate into monolayers of polarized enterocytes. Caco-2 cells express P-glycoprotein and breast cancer resistance protein, two of the most relevant cell membrane active transporters that affect drug compound's permeability into cells and blood brain barrier.
The cells are seeded on Millipore Millicell plates and form a confluent monolayer over 20 days prior to the experiment. On day 20, the test compound (1-30 μM concentration) is added to the apical side of the membrane and the transport of the compound across the monolayer is monitored over a 120 minutes time period. To study drug efflux, it is also necessary to investigate transport of the compound from the basolateral compartment to the apical compartment.
as §1, with “monolayer. C0 is obtained from analysis of the dosing solution at the start experiment.” for “monolayer.”

SMILES | GI50 (A375 melanoma cells) [nM] | efflux ratio at 120 min (P-glycoprotein (MDR1)) | Papp A→B at 120 min (P-glycoprotein (MDR1)) [×10⁻⁶ cm/s] | Papp B→A at 120 min (P-glycoprotein (MDR1)) [×10⁻⁶ cm/s] | efflux ratio at 120 min [1] | Papp A→B at 120 min [1] [×10⁻⁶ cm/s] | Papp B→A at 120 min [1] [×10⁻⁶ cm/s]
CCCS(=O)(=O)Nc1ccc(F)c(Oc2ccc3c(c2)C2=NCCN2C=N3)c1C#N [Compound 3, N-(2-Cyano-3-((2,3-dihydroimidazo[1,2-c]quinazolin-9-yl)oxy)-4-fluorophenyl)propane-1-sulfonamide] | < 100 | 9.85 | 2.15 | 21.2 | 1.48 | 9.24 | 13.7
CCCS(=O)(=O)Nc1cccc(Oc2ccc3c(c2)C2=NCCN2C=N3)c1C(F)(F)F [Compound 11, N-(3-((2,3-Dihydroimidazo[1,2-c]quinazolin-9-yl)oxy)-2-(trifluoromethyl)phenyl)propane-1-sulfonamide] | 100 to 1000 | 1.22 | 34.6 | 42.3 | – | – | –
N#Cc1c(NS(=O)(=O)c2ccccc2F)cccc1Oc1ccc2c(c1)C1=NCCN1C=N2 [Compound 14, N-(2-Cyano-3-((2,3-dihydroimidazo[1,2-c]quinazolin-9-yl)oxy)phenyl)-2-fluorobenzenesulfonamide] | < 100 | 2.73 | 3.03 | 8.29 | 2.77 | 6.37 | 17.7
N#Cc1c(NS(=O)(=O)c2cccs2)cccc1Oc1ccc2c(c1)C1=NCCN1C=N2 [Compound 15, N-(2-Cyano-3-((2,3-dihydroimidazo[1,2-c]quinazolin-9-yl)oxy)phenyl)thiophene-2-sulfonamide] | 100 to 1000 | 1.73 | 3.1 | 5.36 | 2.94 | 5.08 | 14.9
CCCS(=O)(=O)Nc1ccc(F)c(Oc2ccc3c(c2)C2=NCCCN2C=N3)c1C#N [Compound 17, N-(2-cyano-3-((3,4-dihydro-2H-pyrimido[1,2-c]quinazolin-10-yl)oxy)-4-fluorophenyl)propane-1-sulfonamide] | < 100 | 13.2 | 0.7 | 9.28 | – | – | –
O=S(=O)(Nc1cccc(Oc2ccc3c(c2)C2=NCCN2C=N3)c1Cl)N1CC[C@@H](F)C1 [Compound 46, (R)—N-(2-Chloro-3-((2,3-dihydroimidazo[1,2-c]quinazolin-9-yl)oxy)phenyl)-3-fluoropyrrolidine-1-sulfonamide] | < 100 | 2.79 | 20.8 | 57.9 | – | – | –

The remaining lines, values ahead:

GI50 (A375 melanoma cells) [nM] | efflux ratio at 120 min (P-glycoprotein (MDR1)) | Papp A→B at 120 min (P-glycoprotein (MDR1)) [×10⁻⁶ cm/s] | Papp B→A at 120 min (P-glycoprotein (MDR1)) [×10⁻⁶ cm/s] | efflux ratio at 120 min [1] | Papp A→B at 120 min [1] [×10⁻⁶ cm/s] | Papp B→A at 120 min [1] [×10⁻⁶ cm/s] | SMILES
> 1000 | 2.63 | 19 | 50 | – | – | – | CCCS(=O)(=O)N(C)c1cccc(Oc2ccc3c(c2)C2=NCCN2C=N3)c1C#N [Compound 2, N-(2-Cyano-3-((2,3-dihydroimidazo[1,2-c]quinazolin-9-yl)oxy)phenyl)-N-methylpropane-1-sulfonamide]
100 to 1000 | 1.82 | 1.21 | 2.19 | – | – | – | CCCS(=O)(=O)Nc1c(F)ccc(Oc2ccc3c(c2)C2=NCCN2C=N3)c1C#N [Compound 5, N-(2-Cyano-3-((2,3-dihydroimidazo[1,2-c]quinazolin-9-yl)oxy)-6-fluorophenyl)propane-1-sulfonamide]
100 to 1000 | 2.47 | 17.6 | 43.4 | – | – | – | CCCS(=O)(=O)Nc1cccc(Oc2ccc3c(c2)C2=NCCN2C=N3)c1F [Compound 9, N-(3-((2,3-Dihydroimidazo[1,2-c]quinazolin-9-yl)oxy)-2-fluorophenyl)propane-1-sulfonamide]
< 100 | 4.3 | 6.6 | 28.4 | – | – | – | CCCS(=O)(=O)Nc1cccc(Oc2ccc3c(c2)C2=NCCN2C=N3)c1[N+](=O)[O-] [Compound 12, N-(3-((2,3-Dihydroimidazo[1,2-c]quinazolin-9-yl)oxy)-2-nitrophenyl)propane-1-sulfonamide]
